From ChEMBL document CHEMBL3797190, “Development of 3,5-Dinitrobenzylsulfanyl-1,3,4-oxadiazoles and Thiadiazoles as Selective Antitubercular Agents Active Against Replicating and Nonreplicating Mycobacterium tuberculosis” (J Med Chem, 2016)
≈ marks a conversion by molar mass, not a printed value. Calls of active or inactive are those of the source. The rule behind the calls is not given here.

Tests used:
[1] = system: Mycobacterium tuberculosis; experiment: Antimycobacterial activity against Mycobacterium tuberculosis CNCTC My 331/88 after 14 days by microdilution method; type: functional; conditions: CNCTC My 331/88, 336 h
Mycobacterium avium [2] = experiment: Antimycobacterial activity against Mycobacterium avium CNCTC My 330/88 after 14 days by microdilution method; type: functional; conditions: CNCTC My 330/88, 336 h
Mycobacterium kansasii [3] = experiment: Antimycobacterial activity against Mycobacterium kansasii CNCTC My 235/80 after 14 days by microdilution method; type: functional; conditions: CNCTC My 235/80, 336 h
Mycobacterium kansasii [4] = experiment: Antimycobacterial activity against Mycobacterium kansasii CNCTC My 6509/96 after 14 days by microdilution method; type: functional; conditions: CNCTC My 6509/96, 336 h
[5] = system: Mycobacterium tuberculosis; experiment: Antimycobacterial activity against Mycobacterium tuberculosis CNCTC My 331/88 after 21 days by microdilution method; type: functional; conditions: CNCTC My 331/88, 504 h
Mycobacterium avium [6] = experiment: Antimycobacterial activity against Mycobacterium avium CNCTC My 330/88 after 21 days by microdilution method; type: functional; conditions: CNCTC My 330/88, 504 h
Mycobacterium kansasii [7] = experiment: Antimycobacterial activity against Mycobacterium kansasii CNCTC My 235/80 after 21 days by microdilution method; type: functional; conditions: CNCTC My 235/80, 504 h
Mycobacterium kansasii [8] = experiment: Antimycobacterial activity against Mycobacterium kansasii CNCTC My 6509/96 after 21 days by microdilution method; type: functional; conditions: CNCTC My 6509/96, 504 h
Mycobacterium kansasii [9] = experiment: Antimycobacterial activity against Mycobacterium kansasii CNCTC My 235/80 after 7 days by microdilution method; type: functional; conditions: CNCTC My 235/80, 168 h
Mycobacterium kansasii [10] = experiment: Antimycobacterial activity against Mycobacterium kansasii CNCTC My 6509/96 after 7 days by microdilution method; type: functional; conditions: CNCTC My 6509/96, 168 h
[11] = Cytotoxicity against human HuH7 cells assessed as cell viability after 24 hrs by MTS assay; type: cell-based; conditions: Huh-7, 24 h
HeLa [12] = experiment: Cytotoxicity against human HeLa cells assessed as cell viability after 24 hrs by MTS assay; type: cell-based
[13] = Cytotoxicity against MDCK2-MDR1 cells assessed as cell viability after 24 hrs by MTS assay; type: ADME, cell-based; conditions: Canis lupus familiaris, MDCK-II
[14] = Cytotoxicity against human HuH7 cells assessed as cell viability at 20 uM after 24 hrs by MTS assay; type: cell-based, Huh-7; conditions: read-out: Activity
[15] = Cytotoxicity against human HuH7 cells assessed as cell viability at 20 uM after 48 hrs by MTS assay; type: cell-based, Huh-7; conditions: read-out: Activity
[16] = Cytotoxicity against human HeLa cells assessed as cell viability at 20 uM after 24 hrs by MTS assay; type: cell-based; conditions: read-out: Activity
[17] = Cytotoxicity against human HeLa cells assessed as cell viability at 20 uM after 48 hrs by MTS assay; type: cell-based; conditions: read-out: Activity
[18] = Cytotoxicity against MDCK2-MDR1 cells assessed as cell viability at 20 uM after 24 hrs by MTS assay; type: ADME, cell-based, Canis lupus familiaris, MDCK-II; conditions: dog, read-out: Activity
[19] = Cytotoxicity against MDCK2-MDR1 cells assessed as cell viability at 20 uM after 48 hrs by MTS assay; type: ADME, cell-based, Canis lupus familiaris, MDCK-II; conditions: dog, read-out: Activity
Hepatocyte = experiment: Cytotoxicity against primary human hepatocytes assessed as cell viability after 48 hrs by MTS assay; type: cell-based
[20] = Cytotoxicity against primary human hepatocytes assessed as cell viability at 20 uM after 48 hrs by MTS assay; type: cell-based, Hepatocyte; conditions: read-out: Activity
Candida albicans = experiment: Antifungal activity against Candida albicans ATCC 44859 after 24 to 48 hrs by broth microdilution method; type: functional
Candida tropicalis = experiment: Antifungal activity against Candida tropicalis 156 after 24 to 48 hrs by broth microdilution method; type: functional
Pichia kudriavzevii = experiment: Antifungal activity against Candida krusei E28 after 24 to 48 hrs by broth microdilution method; type: functional
Nakaseomyces glabratus = experiment: Antifungal activity against Candida glabrata 20/I after 24 to 48 hrs by broth microdilution method; type: functional
Trichosporon asahii = experiment: Antifungal activity against Trichosporon asahii 1188 after 24 to 48 hrs by broth microdilution method; type: functional
Aspergillus fumigatus = experiment: Antifungal activity against Aspergillus fumigatus 231 after 24 to 48 hrs by broth microdilution method; type: functional
Lichtheimia corymbifera = experiment: Antifungal activity against Absidia corymbifera 272 after 24 to 48 hrs by broth microdilution method; type: functional
[21] = system: Trichophyton mentagrophytes; experiment: Antifungal activity against Trichophyton mentagrophytes 445 after 72 to 120 hrs by broth microdilution method; type: functional
Staphylococcus aureus [22] = experiment: Antibacterial activity against Staphylococcus aureus ATCC 6538 after 24 to 48 hrs by broth microdilution method; type: functional
Staphylococcus aureus [23] = experiment: Antibacterial activity against methicillin-resistant Staphylococcus aureus H 5996/08 after 24 to 48 hrs by broth microdilution method; type: functional
[24] = system: Staphylococcus epidermidis; experiment: Antibacterial activity against Staphylococcus epidermidis H 6966/08 after 24 to 48 hrs by broth microdilution method; type: functional
Enterococcus faecalis = experiment: Antibacterial activity against Enterococcus faecalis J 14365/08 after 24 to 48 hrs by broth microdilution method; type: functional
Escherichia coli = experiment: Antibacterial activity against Escherichia coli ATCC 8739 after 24 to 48 hrs by broth microdilution method; type: functional
Klebsiella pneumoniae [25] = experiment: Antibacterial activity against Klebsiella pneumoniae D 11750/08 after 24 to 48 hrs by broth microdilution method; type: functional
Klebsiella pneumoniae [26] = experiment: Antibacterial activity against ESBL producing Klebsiella pneumoniae J 14368/08 after 24 to 48 hrs by broth microdilution method; type: functional
Pseudomonas aeruginosa = experiment: Antibacterial activity against Pseudomonas aeruginosa ATCC 9027 after 24 to 48 hrs by broth microdilution method; type: functional
[27] = system: Mycobacterium tuberculosis; experiment: Antimycobacterial activity against Mycobacterium tuberculosis H37Ra assessed as growth inhibition at 0.2 ug/ml preincubated for 24 hrs followed by radiolabeling with [14C]-acetate for 24 hrs; type: functional; conditions: read-out: GI
[28] = system: Mycobacterium tuberculosis H37Ra; experiment: Inhibition of DprE1 in Mycobacterium tuberculosis H37Ra assessed as accumulation of trehalose dimycolate at 0.2 ug/ml preincubated for 24 hrs followed by radiolabeling with [14C]-acetate for 24 hrs by TLC/autoradiographic method
[29] = system: Mycobacterium tuberculosis; experiment: Inhibition of proteosynthesis in Mycobacterium tuberculosis H37Ra assessed as reduction of [14C]-methionine incorporation at 0.05 ug/ml preincubated for 1 hr followed by radiolabeling with [14C]-methionine for 24 hrs by scintillation spectrometry; type: functional
[30] = Cytotoxicity against human HuH7 cells assessed as cell viability after 48 hrs by MTS assay; type: cell-based; conditions: Huh-7, 48 h
HeLa [31] = experiment: Cytotoxicity against human HeLa cells assessed as cell viability after 48 hrs by MTS assay; type: cell-based
[32] = Cytotoxicity against MDCK2-MDR1 cells assessed as cell viability after 48 hrs by MTS assay; type: ADME, cell-based; conditions: Canis lupus familiaris, MDCK-II
[33] = system: Mycobacterium tuberculosis; experiment: Antimycobacterial activity against Mycobacterium tuberculosis H37Ra assessed as growth inhibition at 0.05 ug/ml preincubated for 1 hr followed by radiolabeling with [14C]-uracil, [14C]-methionine for 24 hrs; type: functional, organism-based
[34] = system: Mycobacterium tuberculosis; experiment: Inhibition of RNA biosynthesis in Mycobacterium tuberculosis H37Ra assessed as reduction of [14C]-uracil incorporation at 0.05 ug/ml preincubated for 1 hr followed by radiolabeling with [14C]-uracil for 24 hrs by scintillation spectrometry; type: functional
Salmonella typhimurium [35] = experiment: Mutagenic activity in Salmonella typhimurium TA100 assessed as reverse mutation at 30 uM by Ames test; type: toxicity, organism-based; conditions: salmonella enterica subsp. enterica serovar typhimurium
Salmonella typhimurium [36] = experiment: Mutagenic activity in Salmonella typhimurium TA98 assessed as reverse mutation at 30 uM by Ames test; type: toxicity, organism-based; conditions: salmonella enterica subsp. enterica serovar typhimurium

Row | Structure (SMILES) | MIC99 [1] [µM] | MIC99 (Mycobacterium avium [2]) [µM] | MIC99 (Mycobacterium kansasii [3]) [µM] | MIC99 (Mycobacterium kansasii [4]) [µM] | MIC99 [5] [µM] | MIC99 (Mycobacterium avium [6]) [µM] | MIC99 (Mycobacterium kansasii [7]) [µM] | MIC99 (Mycobacterium kansasii [8]) [µM] | MIC99 (Mycobacterium kansasii [9]) [µM] | IC50 [11] [µM] | IC50 (HeLa [12]) [µM] | IC50 [13] [µM] | viability at 24 h, 20 µM [14] [%] | viability at 48 h, 20 µM [15] [%] | viability at 24 h, 20 µM [16] [%] | viability at 48 h, 20 µM [17] [%] | viability at 24 h, 20 µM [18] [%] | viability at 48 h, 20 µM [19] [%] | IC50 (Hepatocyte) [µM] | viability at 48 h, 20 µM [20] [%] | further results
1 | O=[N+]([O-])c1cc(CSc2nnc(-c3ccc(Cl)cc3Cl)o2)cc([N+](=O)[O-])c1 | ≤ 0.03 | 16 (≈ 6.84 µg/mL) | 0.5 (≈ 0.214 µg/mL) | 0.25 (≈ 0.107 µg/mL) | 0.06 (≈ 0.0256 µg/mL) | 32 (≈ 13.7 µg/mL) | 0.5 (≈ 0.214 µg/mL) | 0.5 (≈ 0.214 µg/mL) | 0.125 (≈ 0.0534 µg/mL) | > 20 | > 20 | > 20 | 95.7 | 37.7 | 76.4 | 39.9 | 106 | 27.9 | > 20 | 81.1 | MIC99 (Mycobacterium kansasii [10]): 0.125 µM (≈ 0.0534 µg/mL); MIC80 (Candida albicans): > 125 µM; MIC80 (Candida tropicalis): > 125 µM; MIC80 (Pichia kudriavzevii): > 125 µM; MIC80 (Nakaseomyces glabratus): > 125 µM; MIC80 (Trichosporon asahii): > 125 µM; MIC50 (Aspergillus fumigatus): > 125 µM; MIC50 (Lichtheimia corymbifera): > 125 µM; MIC50 [21]: > 125 µM; MIC95 (Staphylococcus aureus [22]): > 125 µM; MIC95 (Staphylococcus aureus [23]): > 125 µM; MIC95 [24]: > 125 µM; MIC95 (Enterococcus faecalis): > 125 µM; MIC95 (Escherichia coli): > 125 µM; MIC95 (Klebsiella pneumoniae [25]): > 125 µM; MIC95 (Klebsiella pneumoniae [26]): > 125 µM; MIC95 (Pseudomonas aeruginosa): > 125 µM
2 | C[C@H]1COC2(CCN(c3nc(=O)c4cc(C(F)(F)F)cc([N+](=O)[O-])c4s3)CC2)O1 [BTZ-043] | – | – | – | – | – | – | – | – | – | – | – | – | – | – | – | – | – | – | – | – | inhibition of growth at 0.2 µg/mL [27]: 38%; inhibition [28]: Active
3 | CO[C@H]1/C=C/O[C@@]2(C)Oc3c(C)c(O)c4c(O)c(c(/C=N/N5CCN(C)CC5)c(O)c4c3C2=O)NC(=O)/C(C)=C\C=C\[C@H](C)[C@H](O)[C@@H](C)[C@@H](O)[C@@H](C)[C@H](OC(C)=O)[C@@H]1C [RIFAMPIN] | – | – | – | – | – | – | – | – | – | > 20 | > 20 | > 20 | 98.3 | 52.7 | 102 | 100 | 103 | 106 | > 20 | 123 | inhibition at 0.05 µg/mL [29]: 61%; IC50 [30]: > 20 µM; IC50 (HeLa [31]): > 20 µM; IC50 [32]: > 20 µM; growth inhibition (GI) [33]: Active; inhibition at 0.05 µg/mL [34]: 68%
4 | COc1cccc(-c2nnc(SCc3cc([N+](=O)[O-])cc([N+](=O)[O-])c3)s2)c1 | ≤ 0.03 | 8 (≈ 3.24 µg/mL) | 0.5 (≈ 0.202 µg/mL) | 0.5 (≈ 0.202 µg/mL) | 0.06 (≈ 0.0243 µg/mL) | 16 (≈ 6.47 µg/mL) | 0.5 (≈ 0.202 µg/mL) | 0.5 (≈ 0.202 µg/mL) | 0.25 (≈ 0.101 µg/mL) | > 20 | > 20 | > 20 | 86.3 | 33 | 71.2 | 17.5 | 100 | 18.5 | > 20 | 121 | MIC99 (Mycobacterium kansasii [10]): 0.25 µM (≈ 0.101 µg/mL); IC50 (HeLa [31]): 4 µM; IC50 [32]: 6.4 µM; Activity (Salmonella typhimurium [35]): Non-toxic; Activity (Salmonella typhimurium [36]): Non-toxic
